Paper PMC7774954, “Interactomic affinity profiling by holdup assay: Acetylation and distal residues impact the PDZome-binding specificity of PTEN phosphatase” (PLoS ONE, 2020)
*1 amine or outer side, *2 acyl side, *3 side chain or, on linkers, in order; H or OH if unused. Where a SMILES comes first, the peptide text is derived from it. The star is where a group is joined. X1 = O=C(CCCC[C@@H]1SC[C@@H]2NC(=O)N[C@@H]21)NCCCOCCOCCOCCCN*; Suc = O=C(CCC(=O)[*:2])[*:1]

Columns and labels:
DLG4 PDZ 1 = target: T1, DLG4 PDZ 1 (Homo sapiens, UniProt P78352); assay: Holdup assay, DLG4-1; format: binding; details: for BI: DLG4-1
T1 construct: made in house; host or cells: E. coli
T1 sequence (P78352 65-151): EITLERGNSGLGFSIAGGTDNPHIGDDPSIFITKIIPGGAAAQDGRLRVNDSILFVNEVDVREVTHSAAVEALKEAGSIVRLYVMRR
Experimental: (§1) The holdup assay was performed on a Tecan freedom Evo200 robot with 384-well plates in singlicate for the three 11-mer PTEN variants and the 13-mer PTEN peptide as described in [31, 32]. Briefly, prior to interaction assay, 2.5 μL of streptavidin resin was saturated in each well with 20 μL of biotinylated PBM peptides (42 μM) and then washed twice with an excess of free biotin, while the reference resin was incubated only with biotin. Right before the holdup experiment, the PDZ library was spiked with an internal standard of lysozyme. Then, the biotin- or PBM-saturated resin was incubated, each in a distinct well of a 384-well plate, with complete cell lysates diluted so that the concentration of the tag-PDZ present in the crude extract is adjusted at 4 μM. After a sufficient time to reach complex equilibrium (15 min.), a fast and mild filtration step is performed and the tag-PDZ concentrations were measured by capillary electrophoresis instrument (LabChip GXII, PerkinElmer, Massachusets, USA). Standard markers were used to convert migration time into molecular weight on the LabChip software and inappropriate molecular weight markers were corrected or excluded.
(§2) For filtered data, the BI was extracted with the following equation (Eq 1) that estimates the depleted fraction after superimposition of the sample and reference electropherograms: BI=Iref−Ilig/Iref (1) where Iref and Ilig are the intensities of the tag-PDZ peaks measured, for each PDZ domain/PBM peptide interaction pair, in the biotin reference and the PBM electropherograms, respectively.
(§3) BIs were transformed into dissociation constants (KD) using the following formula: KD=([PDZtot]−BI·[PDZtot])·([PBMtot]−BI·[PDZtot])/BI·[PDZtot] (2) where [PDZtot] and [PBMtot] correspond to the total concentrations of the PDZ domain (usually around 4 μM) and the PBM peptide used during the assay. Since the PBMtot concentration in the resin during the holdup assay parameter may differ from one peptide to another and remains unknown, it is impossible to directly convert BI values into KD constants. We systematically determined the KD constants for a subset of PDZ/PBM pairs by competitive FP. […] For each PBM, the average peptide concentration was calculated after outlier rejection based on the absolute distances from the median as compared to three times the standard deviation (3σ rule), with never more than 2 values rejected.

MAGI2 PDZ 3 = target: T2, MAGI2 PDZ 3 (Homo sapiens, UniProt Q86UL8); assay: Holdup assay, MAGI2-3; format: binding; details: for BI: MAGI2-3
T2 construct: made in house; host or cells: E. coli
T2 sequence (Q86UL8 605-683 limits assumed): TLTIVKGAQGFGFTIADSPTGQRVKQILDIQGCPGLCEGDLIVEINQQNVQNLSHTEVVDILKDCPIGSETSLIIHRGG
Experimental: as §1, §2, §3

DFNB31-2 = assay: Holdup assay, DFNB31-2; format: binding, human
DLG2-1 = DLG2-1 (Homo sapiens, UniProt Q15700); assay: Holdup assay, DLG2-1; format: binding; details: for BI / LogKD: DLG2-1
GIPC1-1 = assay: Holdup assay, GIPC1-1; format: binding, human
GRIP1-1 = assay: Holdup assay, GRIP1-1; format: binding, human
INADL-5 = assay: Holdup assay, INADL-5; format: binding, human
INADL-6 = INADL-6 (Homo sapiens, UniProt Q8NI35); assay: Holdup assay, INADL-6; format: binding
Chain of INADL-6 (Q8NI35 whole entry): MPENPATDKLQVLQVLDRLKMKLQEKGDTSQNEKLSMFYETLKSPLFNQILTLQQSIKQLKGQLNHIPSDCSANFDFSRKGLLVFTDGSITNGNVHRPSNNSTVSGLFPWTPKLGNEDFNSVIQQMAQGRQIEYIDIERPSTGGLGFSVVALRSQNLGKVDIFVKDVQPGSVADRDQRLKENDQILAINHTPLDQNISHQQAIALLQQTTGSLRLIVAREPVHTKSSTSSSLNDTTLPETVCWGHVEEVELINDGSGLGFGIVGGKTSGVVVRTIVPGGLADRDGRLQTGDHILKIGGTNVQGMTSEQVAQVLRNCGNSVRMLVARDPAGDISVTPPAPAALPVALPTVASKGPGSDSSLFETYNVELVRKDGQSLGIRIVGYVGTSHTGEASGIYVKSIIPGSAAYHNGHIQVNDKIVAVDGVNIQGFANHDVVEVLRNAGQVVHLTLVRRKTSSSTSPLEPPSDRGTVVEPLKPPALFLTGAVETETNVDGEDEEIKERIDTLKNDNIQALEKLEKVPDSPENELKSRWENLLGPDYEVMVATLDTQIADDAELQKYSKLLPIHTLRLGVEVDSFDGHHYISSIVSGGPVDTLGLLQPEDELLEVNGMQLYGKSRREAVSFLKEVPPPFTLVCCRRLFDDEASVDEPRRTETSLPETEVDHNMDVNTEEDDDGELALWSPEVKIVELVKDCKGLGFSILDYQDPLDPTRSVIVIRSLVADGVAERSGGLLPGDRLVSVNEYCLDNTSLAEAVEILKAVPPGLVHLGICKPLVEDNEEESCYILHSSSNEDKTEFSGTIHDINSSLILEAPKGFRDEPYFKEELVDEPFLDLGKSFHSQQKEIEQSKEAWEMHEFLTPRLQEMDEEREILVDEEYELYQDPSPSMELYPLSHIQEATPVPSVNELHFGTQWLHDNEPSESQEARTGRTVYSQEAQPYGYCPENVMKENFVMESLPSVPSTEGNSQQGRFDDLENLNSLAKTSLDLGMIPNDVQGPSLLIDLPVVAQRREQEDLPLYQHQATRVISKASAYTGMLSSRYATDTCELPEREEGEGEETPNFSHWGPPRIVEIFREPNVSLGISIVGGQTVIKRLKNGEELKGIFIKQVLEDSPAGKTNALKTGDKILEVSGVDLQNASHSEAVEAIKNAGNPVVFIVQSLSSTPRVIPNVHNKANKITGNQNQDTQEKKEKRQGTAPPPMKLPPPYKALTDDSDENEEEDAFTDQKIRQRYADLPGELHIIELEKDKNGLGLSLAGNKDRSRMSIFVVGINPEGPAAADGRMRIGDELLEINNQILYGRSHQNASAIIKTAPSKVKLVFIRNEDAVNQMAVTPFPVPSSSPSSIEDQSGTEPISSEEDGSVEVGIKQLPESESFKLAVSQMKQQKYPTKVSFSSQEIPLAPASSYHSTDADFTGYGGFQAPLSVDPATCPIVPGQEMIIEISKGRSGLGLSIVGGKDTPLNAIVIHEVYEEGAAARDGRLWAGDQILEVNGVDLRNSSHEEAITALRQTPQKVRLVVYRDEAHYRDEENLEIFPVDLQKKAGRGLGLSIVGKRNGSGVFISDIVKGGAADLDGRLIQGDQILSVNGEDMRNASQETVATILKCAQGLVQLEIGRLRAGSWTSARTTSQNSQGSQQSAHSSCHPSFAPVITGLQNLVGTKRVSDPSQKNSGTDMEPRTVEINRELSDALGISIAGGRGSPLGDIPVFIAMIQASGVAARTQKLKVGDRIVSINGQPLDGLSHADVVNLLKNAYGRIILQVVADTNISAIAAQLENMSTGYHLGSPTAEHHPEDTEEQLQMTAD

LIMK1-1 = assay: Holdup assay, LIMK1-1; format: binding, human
MAGI3-5 = target: T3, MAGI3-5 (Homo sapiens, UniProt Q5TCQ9); assay: Holdup assay, MAGI3-5; format: binding
T3 sequence (Q5TCQ9 1-1481): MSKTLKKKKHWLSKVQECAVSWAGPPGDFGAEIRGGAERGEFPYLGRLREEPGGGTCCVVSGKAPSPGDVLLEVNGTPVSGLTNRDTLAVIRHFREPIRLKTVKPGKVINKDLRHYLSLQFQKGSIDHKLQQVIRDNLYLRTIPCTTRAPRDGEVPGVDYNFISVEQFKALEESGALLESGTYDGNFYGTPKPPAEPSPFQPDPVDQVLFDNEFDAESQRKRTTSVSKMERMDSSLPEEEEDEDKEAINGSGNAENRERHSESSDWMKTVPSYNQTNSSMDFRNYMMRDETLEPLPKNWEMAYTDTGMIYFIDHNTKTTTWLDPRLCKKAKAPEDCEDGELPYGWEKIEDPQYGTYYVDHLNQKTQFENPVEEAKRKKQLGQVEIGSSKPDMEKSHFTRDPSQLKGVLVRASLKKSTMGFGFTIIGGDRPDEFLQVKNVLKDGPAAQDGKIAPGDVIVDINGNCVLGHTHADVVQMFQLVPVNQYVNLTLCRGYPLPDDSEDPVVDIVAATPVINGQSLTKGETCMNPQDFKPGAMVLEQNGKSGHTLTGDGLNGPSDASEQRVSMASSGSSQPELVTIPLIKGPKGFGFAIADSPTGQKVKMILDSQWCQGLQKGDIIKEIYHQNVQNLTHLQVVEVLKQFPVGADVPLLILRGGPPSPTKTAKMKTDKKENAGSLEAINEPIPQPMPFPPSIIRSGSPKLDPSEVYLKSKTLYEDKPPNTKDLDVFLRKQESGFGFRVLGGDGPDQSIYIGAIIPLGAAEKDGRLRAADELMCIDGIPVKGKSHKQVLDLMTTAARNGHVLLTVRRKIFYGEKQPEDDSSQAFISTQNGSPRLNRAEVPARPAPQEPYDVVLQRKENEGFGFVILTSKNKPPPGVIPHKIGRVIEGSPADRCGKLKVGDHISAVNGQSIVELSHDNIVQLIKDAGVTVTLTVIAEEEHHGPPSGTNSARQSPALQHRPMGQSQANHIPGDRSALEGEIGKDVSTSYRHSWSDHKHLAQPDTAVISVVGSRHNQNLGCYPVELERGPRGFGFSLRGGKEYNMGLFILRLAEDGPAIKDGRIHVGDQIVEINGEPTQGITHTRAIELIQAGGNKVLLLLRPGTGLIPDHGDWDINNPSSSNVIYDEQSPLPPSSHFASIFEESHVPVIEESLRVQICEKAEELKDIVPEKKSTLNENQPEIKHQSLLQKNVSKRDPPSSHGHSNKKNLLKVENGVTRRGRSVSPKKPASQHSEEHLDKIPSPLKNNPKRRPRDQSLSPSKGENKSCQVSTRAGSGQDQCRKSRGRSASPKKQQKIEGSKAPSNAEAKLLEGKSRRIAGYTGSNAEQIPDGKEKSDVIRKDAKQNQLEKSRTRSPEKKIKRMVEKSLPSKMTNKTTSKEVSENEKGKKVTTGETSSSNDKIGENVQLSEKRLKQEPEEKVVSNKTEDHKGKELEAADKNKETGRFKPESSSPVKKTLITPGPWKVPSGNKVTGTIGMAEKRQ

Compound	BI (DLG4 PDZ 1)	Kd (MAGI2 PDZ 3)	BI (MAGI2 PDZ 3)	BI (DFNB31-2)	LogKD (DFNB31-2)	BI (DLG2-1)	LogKD (DLG2-1)	BI (GIPC1-1)	LogKD (GIPC1-1)	BI (GRIP1-1)	LogKD (GRIP1-1)	BI (INADL-5)	LogKD (INADL-5)	BI (INADL-6)	LogKD (INADL-6)	BI (LIMK1-1)	LogKD (LIMK1-1)	BI (MAGI3-5)	LogKD (MAGI3-5)	further results
CC[C@H](C)[C@H](NC(=O)[C@H](CCC(N)=O)NC(=O)[C@@H](NC(=O)[C@H](Cc1c[nH]cn1)NC(=O)[C@H](CCC(N)=O)NC(=O)[C@H](CC(=O)O)NC(=O)[C@H](CCC(=O)O)NC(=O)[C@H](CC(=O)O)NC(=O)CCC(=O)NCCCOCCOCCOCCCNC(=O)CCCC[C@@H]1SC[C@@H]2NC(=O)N[C@@H]21)[C@@H](C)O)C(=O)N[C@H](C(=O)N[C@@H](CCCCN)C(=O)N[C@H](C(=O)O)C(C)C)[C@@H](C)O [PTEN_11]	0.103	47.2 µM	0.407	-0.03	3.519	0.034	3.519	0.042	3.519	-0.021	3.519	-0.044	3.519	0.077	3.519	-0.066	3.519	0.097	3.519	
CC[C@H](C)[C@H](NC(=O)[C@H](CCC(N)=O)NC(=O)[C@@H](NC(=O)[C@H](Cc1c[nH]cn1)NC(=O)[C@H](CCC(N)=O)NC(=O)[C@H](CC(=O)O)NC(=O)[C@H](CCC(=O)O)NC(=O)[C@H](CC(=O)O)NC(=O)CCC(=O)NCCCOCCOCCOCCCNC(=O)CCCC[C@@H]1SC[C@@H]2NC(=O)N[C@@H]21)[C@@H](C)O)C(=O)N[C@H](C(=O)N[C@@H](CCCCNC(C)=O)C(=O)N[C@H](C(=O)O)C(C)C)[C@@H](C)O [PTEN_Ac]	0.15	15.3 µM	0.625	-0.091	3.605	0.211		0.035	3.605			-0.076	3.605	0.316		-0.047	3.605	0.21		Kd (DLG2-1): 102 µM; Kd (INADL-6): 57.9 µM; Kd (MAGI3-5): 102 µM
CC[C@H](C)[C@H](NC(=O)[C@H](CCC(N)=O)NC(=O)[C@@H](NC(=O)[C@H](Cc1c[nH]cn1)NC(=O)[C@H](CCC(N)=O)NC(=O)[C@H](CC(=O)O)NC(=O)[C@H](CCC(=O)O)NC(=O)[C@H](CC(=O)O)NC(=O)[C@H](Cc1ccccc1)NC(=O)[C@@H]1CCCN1C(=O)CCC(=O)NCCCOCCOCCOCCCNC(=O)CCCC[C@@H]1SC[C@@H]2NC(=O)N[C@@H]21)[C@@H](C)O)C(=O)N[C@H](C(=O)N[C@@H](CCCCN)C(=O)N[C@H](C(=O)O)C(C)C)[C@@H](C)O [PTEN_13] ({X1-Suc}-PFDEDQHTQITKV-OH)	0.077	30.1 µM	0.342	0.036		0.035	[…]	-0.02		-0.079		-0.039		0.044	[…]	-0.103		[…]	[…]	
CC[C@H](C)[C@H](NC(=O)[C@H](CCC(N)=O)NC(=O)[C@@H](NC(=O)[C@H](Cc1c[nH]cn1)NC(=O)[C@H](CCC(N)=O)NC(=O)[C@H](CC(=O)O)NC(=O)[C@H](CCC(=O)O)NC(=O)[C@H](CC(=O)O)NC(=O)CCC(=O)NCCCOCCOCCOCCCNC(=O)CCCC[C@@H]1SC[C@@H]2NC(=O)N[C@@H]21)[C@@H](C)O)C(=O)N[C@H](C(=O)N[C@@H](CCCNC(=N)N)C(=O)N[C@H](C(=O)O)C(C)C)[C@@H](C)O [PTEN_KR] ({X1-Suc}-DEDQHTQITRV-OH)	0.229	21.2 µM	0.52	-0.046	3.655	0.191		0.02	3.655	-0.163	3.655	-0.046	3.655	0.066	3.655	-0.08	3.655	0.165		Kd (DLG4 PDZ 1): 81.1 µM
